Target: SARS-CoV-2 3CL-protease (Severe acute respiratory syndrome coronavirus 2, UniProt P0DTD1)
Assay: SARS-CoV-2 3C-Like (3CL) Protease Fluorescence Assay (FRET)
Assay type: biochemical
Conditions: SARS-CoV-2 3CL-protease 10 nM, 30 min preincubation at RT, substrate 40 μM

Structure (SMILES) | IC50
CC(C)C[C@@H](C(=O)N1C[C@]2(C[C@H]1C#N)C(=O)Nc1ccc(NC(=O)C3(F)CC3)cc12)N(C)C(=O)c1cc2c(F)cc(F)cc2[nH]1 [Example 504, N—((S)-1-((3R,5′S)-5′-cyano-5-(1-fluorocyclopropane-1-carboxamido)-2-oxospiro[indoline-3,3′-pyrrolidin]-1′-yl)-4-methyl-1-oxopentan-2-yl)-4,6-difluoro-N-methyl-1H-indole-2-carboxamide] | < 100 nM
CC(C)C[C@@H](C(=O)N1C[C@]2(C[C@H]1C#N)C(=O)Nc1ccc(-n3cc(C4CC4)nn3)cc12)N(C)C(=O)c1cc2c(F)cc(F)cc2[nH]1 [Example 505, N—((S)-1-((3R,5′S)-5′-cyano-5-(4-cyclopropyl-1H-1,2,3-triazol-1-yl)-2-oxospiro[indoline-3,3′-pyrrolidin]-1′-yl)-4-methyl-1-oxopentan-2-yl)-4,6-difluoro-N-methyl-1H-indole-2-carboxamide] | < 100 nM
CC(C)C[C@@H](C(=O)N1C[C@]2(C[C@H]1C#N)C(=O)Nc1ccc(-c3cccnc3)cc12)N(C)C(=O)c1cc2c(F)cc(F)cc2[nH]1 [Example 506] | < 100 nM
CC(C)C[C@@H](C(=O)N1C[C@]2(C[C@H]1C#N)C(=O)Nc1ccc(-c3cn(-c4ccccn4)nn3)cc12)N(C)C(=O)c1cc2c(F)cc(F)cc2[nH]1 [Example 507] | < 100 nM
CC(C)C[C@@H](C(=O)N1C[C@]2(C[C@H]1C#N)C(=O)Nc1ccc(Br)cc12)N(C)C(=O)c1cc2c(F)cc(F)cc2[nH]1 [Example 508] | < 100 nM
CC(C)C[C@@H](C(=O)N1C[C@]2(C[C@H]1C#N)C(=O)Nc1ccc(C#C[Si](C)(C)C)cc12)N(C)C(=O)c1cc2c(F)cc(F)cc2[nH]1 [Example 509] | < 100 nM
CC(C)C[C@@H](C(=O)N1C[C@]2(C[C@H]1C#N)C(=O)Nc1ccc(-c3ccncc3)cc12)N(C)C(=O)c1cc2c(F)cc(F)cc2[nH]1 [Example 510] | < 100 nM
CC(C)C[C@@H](C(=O)N1C[C@]2(C[C@H]1C#N)C(=O)Nc1ccc(-c3ccc(F)cc3)cc12)N(C)C(=O)c1cc2c(F)cc(F)cc2[nH]1 [Example 511] | < 100 nM
CC(C)C[C@@H](C(=O)N1C[C@]2(C[C@H]1C#N)C(=O)Nc1ccc(-c3ccoc3)cc12)N(C)C(=O)c1cc2c(F)cc(F)cc2[nH]1 [Example 512] | < 100 nM
CC(C)C[C@@H](C(=O)N1C[C@]2(C[C@H]1C#N)C(=O)Nc1ccc(-c3ccsc3)cc12)N(C)C(=O)c1cc2c(F)cc(F)cc2[nH]1 [Example 513] | < 100 nM
CC(C)C[C@@H](C(=O)N1C[C@]2(C[C@H]1C#N)C(=O)Nc1ccc(-c3ccn(C(F)F)n3)cc12)N(C)C(=O)c1cc2c(F)cc(F)cc2[nH]1 [Example 514] | < 100 nM
CC(C)C[C@@H](C(=O)N1C[C@]2(C[C@H]1C#N)C(=O)Nc1ccc(-c3cnoc3)cc12)N(C)C(=O)c1cc2c(F)cc(F)cc2[nH]1 [Example 515] | < 100 nM
CC(C)C[C@@H](C(=O)N1C[C@]2(C[C@H]1C#N)C(=O)Nc1ccc(-c3ccccn3)cc12)N(C)C(=O)c1cc2c(F)cc(F)cc2[nH]1 [Example 516] | < 100 nM
CC(C)C[C@@H](C(=O)N1C[C@]2(C[C@H]1C#N)C(=O)Nc1ccc(Br)cc12)N(C)C(=O)OCc1ccccc1 [Example 517, benzyl ((S)-1-((3R,5′S)-5-bromo-5′-cyano-2-oxospiro[indoline-3,3′-pyrrolidin]-1′-yl)-4-methyl-1-oxopentan-2-yl)(methyl)carbamate] | < 100 nM
Cc1ccc2c(c1)[C@@]1(C[C@@H](C#N)N(C(=O)[C@H](CC(C)C)N(C)C(=O)OCc3ccccc3)C1)C(=O)N2 [Example 518, benzyl ((S)-1-((3R,5′S)-5′-cyano-5-methyl-2-oxospiro[indoline-3,3′-pyrrolidin]-1′-yl)-4-methyl-1-oxopentan-2-yl)(methyl)carbamate] | < 100 nM
